Reference: publication PMC5218480 (PLoS ONE, 2017)

Test system: MV-4-11 cells
Assay: Gene expression microarray analysis (Affymetrix PrimeView) and GSEA
Assay type: cell-based, human
Set-up: RFU PODN (11730768_x_at) / Fold change /veh PODN (11730768_x_at) / RFU LINC00158 (11744669_a_at) / Fold change /veh LINC00158 (11744669_a_at) / RFU DUSP10 (11751237_a_at) / Fold change /veh DUSP10 (11751237_a_at) / RFU ID3 (11757404_x_at) / Fold change /veh ID3 (11757404_x_at) / RFU PLEKHG5 (11737974_s_at) / Fold change /veh PLEKHG5 (11737974_s_at) / RFU LRRC4B (11730491_at) / Fold change /veh LRRC4B (11730491_at) / RFU GIMAP4 (11747438_a_at) / Fold change /veh GIMAP4 (11747438_a_at) / RFU KRT8 (11758183_x_at) / Fold change /veh KRT8 (11758183_x_at) / RFU CNN1 (11734310_a_at) / Fold change /veh CNN1 (11734310_a_at) / RFU VPS37D (11726825_at) / Fold change /veh VPS37D (11726825_at) / RFU C10orf10 (11716522_x_at) / Fold change /veh C10orf10 (11716522_x_at) / RFU KIR2DL2 /// KIR2DL4 /// KIR2DL5A /// KIR2DL5B /// KIR2DS1 /// KIR2DS2 /// KIR2DS3 /// KIR2DS4 /// KIR3DL3 /// KIR3DL3 /// KIR3DS1 (11738374_at) / Fold change /veh KIR2DL2 /// KIR2DL4 /// KIR2DL5A /// KIR2DL5B /// KIR2DS1 /// KIR2DS2 /// KIR2DS3 /// KIR2DS4 /// KIR3DL3 /// KIR3DL3 /// KIR3DS1 (11738374_at) / RFU C1QL1 (11718748_at) / Fold change /veh C1QL1 (11718748_at) / RFU TMPRSS4 (11747572_a_at) / Fold change /veh TMPRSS4 (11747572_a_at) / RFU HAMP (11756126_x_at) / Fold change /veh HAMP (11756126_x_at) / RFU RNFT2 (11725882_a_at) / Fold change /veh RNFT2 (11725882_a_at) / RFU NR4A2 (11747474_a_at) / Fold change /veh NR4A2 (11747474_a_at) / RFU ABCC12 (11746883_a_at) / Fold change /veh ABCC12 (11746883_a_at) / RFU TMEM136 (11760407_x_at) / Fold change /veh TMEM136 (11760407_x_at) / RFU CLDN22 /// WWC2 (11732394_at) / Fold change /veh CLDN22 /// WWC2 (11732394_at) / RFU HLA-DPB1 (11760878_x_at) / Fold change /veh HLA-DPB1 (11760878_x_at) / RFU SPINT1 (11716480_a_at) / Fold change /veh SPINT1 (11716480_a_at) / RFU GAP43 (11754022_s_at) / Fold change /veh GAP43 (11754022_s_at) / RFU A4GNT (11735810_at) / Fold change /veh A4GNT (11735810_at) / RFU PRB3 (11715151_x_at) / Fold change /veh PRB3 (11715151_x_at) / RFU TUBB4B (11761932_at) / Fold change /veh TUBB4B (11761932_at) / RFU CAPN14 (11732068_a_at) / Fold change /veh CAPN14 (11732068_a_at) / RFU TMCC2 (11721928_a_at) / Fold change /veh TMCC2 (11721928_a_at) / RFU IRGQ (11745062_a_at) / Fold change /veh IRGQ (11745062_a_at) / RFU FAM174B (11720279_a_at) / Fold change /veh FAM174B (11720279_a_at) / RFU TMPRSS4 (11748680_a_at) / Fold change /veh TMPRSS4 (11748680_a_at) / RFU FAM212B (11763350_a_at) / Fold change /veh FAM212B (11763350_a_at) / RFU PLEKHG5 (11743358_a_at) / Fold change /veh PLEKHG5 (11743358_a_at) / RFU ZSCAN30 (11745921_a_at) / Fold change /veh ZSCAN30 (11745921_a_at) / RFU CMKLR1 (11741424_a_at) / Fold change /veh CMKLR1 (11741424_a_at) / RFU LOC101060620 /// MAPK8IP1 (11723275_at) / Fold change /veh LOC101060620 /// MAPK8IP1 (11723275_at) / RFU SPTSSB (11747773_x_at) / Fold change /veh SPTSSB (11747773_x_at) / RFU PRSS12 (11739890_at) / Fold change /veh PRSS12 (11739890_at) / RFU BIN1 (11741810_x_at) / Fold change /veh BIN1 (11741810_x_at) / RFU WNT11 (11732464_a_at) / Fold change /veh WNT11 (11732464_a_at) / RFU C10orf10 (11716521_a_at) / Fold change /veh C10orf10 (11716521_a_at) / RFU C5orf56 (11738089_at) / Fold change /veh C5orf56 (11738089_at) / RFU CYB561 (11721691_x_at) / Fold change /veh CYB561 (11721691_x_at) / RFU ANKRD19P (11752326_a_at) / Fold change /veh ANKRD19P (11752326_a_at) / RFU OR2T12 /// OR2T33 /// OR2T8 (11738714_s_at) / Fold change /veh OR2T12 /// OR2T33 /// OR2T8 (11738714_s_at) / RFU VCAN (11748164_a_at) / Fold change /veh VCAN (11748164_a_at) / RFU JSRP1 (11732532_at) / Fold change /veh JSRP1 (11732532_at) / RFU KRTAP10-11 (11738290_x_at) / Fold change /veh KRTAP10-11 (11738290_x_at) / RFU MYO3A (11730013_a_at) / Fold change /veh MYO3A (11730013_a_at) / RFU EBF3 (11725865_a_at) / Fold change /veh EBF3 (11725865_a_at) / RFU CAMK2N1 (11719241_x_at) / Fold change /veh CAMK2N1 (11719241_x_at) / RFU C5orf56 (11738088_a_at) / Fold change /veh C5orf56 (11738088_a_at) / RFU OLFML3 (11715873_a_at) / Fold change /veh OLFML3 (11715873_a_at) / RFU LOC100653217 /// NTM (11731650_a_at) / Fold change /veh LOC100653217 /// NTM (11731650_a_at) / RFU MAPK11 (11762145_a_at) / Fold change /veh MAPK11 (11762145_a_at) / RFU FIZ1 (11724087_x_at) / Fold change /veh FIZ1 (11724087_x_at) / RFU OASL (11726364_x_at) / Fold change /veh OASL (11726364_x_at) / RFU SOX15 (11748057_x_at) / Fold change /veh SOX15 (11748057_x_at) / RFU CD79A (11719716_a_at) / Fold change /veh CD79A (11719716_a_at) / RFU HIST1H1D (11736915_at) / Fold change /veh HIST1H1D (11736915_at) / RFU CASKIN2 (11723855_a_at) / Fold change /veh CASKIN2 (11723855_a_at) / RFU LOC730098 (11760151_x_at) / Fold change /veh LOC730098 (11760151_x_at) / RFU OR4N2 (11742367_at) / Fold change /veh OR4N2 (11742367_at) / RFU PRRT2 (11749266_a_at) / Fold change /veh PRRT2 (11749266_a_at) / RFU SNX32 (11753110_a_at) / Fold change /veh SNX32 (11753110_a_at) / RFU CDHR5 (11726645_a_at) / Fold change /veh CDHR5 (11726645_a_at) / RFU RCAN1 (11760418_a_at) / Fold change /veh RCAN1 (11760418_a_at) / RFU FAM167A (11723789_a_at) / Fold change /veh FAM167A (11723789_a_at) / RFU FAM26E (11764081_at) / Fold change /veh FAM26E (11764081_at) / RFU ISYNA1 (11749810_s_at) / Fold change /veh ISYNA1 (11749810_s_at) / RFU ACY1 (11761880_at) / Fold change /veh ACY1 (11761880_at) / RFU 11764098_at / Fold change /veh 11764098_at / RFU SAMD14 (11745864_x_at) / Fold change /veh SAMD14 (11745864_x_at) / RFU NPB (11741838_a_at) / Fold change /veh NPB (11741838_a_at) / RFU TMPRSS6 (11731388_a_at) / Fold change /veh TMPRSS6 (11731388_a_at) / RFU KRTAP10-2 (11738614_at) / Fold change /veh KRTAP10-2 (11738614_at) / RFU ARHGAP8 /// PRR5-ARHGAP8 (11727945_x_at) / Fold change /veh ARHGAP8 /// PRR5-ARHGAP8 (11727945_x_at) / RFU KRTAP5-7 /// NADSYN1 (11734609_at) / Fold change /veh KRTAP5-7 /// NADSYN1 (11734609_at) / RFU RASL12 (11751679_a_at) / Fold change /veh RASL12 (11751679_a_at) / RFU CDKN2B (11736163_a_at) / Fold change /veh CDKN2B (11736163_a_at) / RFU PRF1 (11729649_at) / Fold change /veh PRF1 (11729649_at) / RFU, ZNF638 /// ZNF638-IT1 / Fold change vs veh, ZNF638 /// ZNF638-IT1 / RFU, PANK3 / Fold change vs veh, PANK3 / RFU, SH3YL1 / Fold change vs veh, SH3YL1 / RFU, ZEB2 / Fold change vs veh, ZEB2 / RFU, NRIP1 / Fold change vs veh, NRIP1 / RFU, PTTG1IP / Fold change vs veh, PTTG1IP / RFU, CAPN2 / Fold change vs veh, CAPN2 / RFU, MED14 / Fold change vs veh, MED14 / RFU, SNORA58 / Fold change vs veh, SNORA58 / RFU, C1orf63 / Fold change vs veh, C1orf63 / RFU, LRRFIP1 / Fold change vs veh, LRRFIP1 / RFU, NDUFAF7 / Fold change vs veh, NDUFAF7 / RFU, SLC12A2 / Fold change vs veh, SLC12A2 / RFU, IBTK / Fold change vs veh, IBTK / RFU, ESF1 / Fold change vs veh, ESF1 / Fold change vs veh, TMEM50B / RFU, TAOK1 / Fold change vs veh, TAOK1 / RFU, ACBD3 / Fold change vs veh, ACBD3 / RFU, TMA16 / Fold change vs veh, TMA16 / RFU, RWDD3 / Fold change vs veh, RWDD3 / RFU, BCAT1 / Fold change vs veh, BCAT1 / RFU, EDEM3 / Fold change vs veh, EDEM3 / RFU, TMEM33 / Fold change vs veh, TMEM33 / RFU, WDR75 / Fold change vs veh, WDR75 / RFU, AHCTF1 / Fold change vs veh, AHCTF1 / RFU, TFRC / Fold change vs veh, TFRC / RFU, ZDHHC17 / Fold change vs veh, ZDHHC17 / RFU, NOM1 / Fold change vs veh, NOM1 / RFU, ARL8B / Fold change vs veh, ARL8B / RFU, ZBTB11 / Fold change vs veh, ZBTB11 / RFU, TAMM41 / Fold change vs veh, TAMM41 / RFU, KIAA1704 /// LOC100996395 / Fold change vs veh, KIAA1704 /// LOC100996395 / RFU, ING1 / Fold change vs veh, ING1 / RFU, TRMT61B / Fold change vs veh, TRMT61B / RFU, FUBP3 / Fold change vs veh, FUBP3 / RFU, TP53 / Fold change vs veh, TP53 / RFU, TNKS2 / Fold change vs veh, TNKS2 / RFU, ZFP14 / Fold change vs veh, ZFP14 / RFU, ACTR2 / Fold change vs veh, ACTR2 / RFU, PPP3R1 / Fold change vs veh, PPP3R1 / RFU, PIK3R1 / Fold change vs veh, PIK3R1 / RFU, HNRNPA1 / Fold change vs veh, HNRNPA1 / RFU, RNF170 / Fold change vs veh, RNF170 / RFU, ZNF28 / Fold change vs veh, ZNF28 / RFU, RNGTT / Fold change vs veh, RNGTT / RFU, OGT / Fold change vs veh, OGT / RFU, BRD1 / Fold change vs veh, BRD1 / RFU, MARS / Fold change vs veh, MARS / RFU, ZNF655 / Fold change vs veh, ZNF655 / RFU, FAHD1 / Fold change vs veh, FAHD1 / RFU, BDP1 / Fold change vs veh, BDP1 / RFU, LRRCC1 / Fold change vs veh, LRRCC1 / RFU, ARID1A / Fold change vs veh, ARID1A / RFU, ZNF146 / Fold change vs veh, ZNF146 / RFU, ZNF330 / Fold change vs veh, ZNF330 / RFU, GPN3 / Fold change vs veh, GPN3 / RFU, C9orf123 / Fold change vs veh, C9orf123 / RFU, N4BP2L2 / Fold change vs veh, N4BP2L2 / RFU, ARFIP1 / Fold change vs veh, ARFIP1 / RFU, FAM179B / Fold change vs veh, FAM179B / RFU, BCL10 / Fold change vs veh, BCL10 / RFU, UHRF1BP1L / Fold change vs veh, UHRF1BP1L / RFU, BET1 / Fold change vs veh, BET1 / RFU, CNOT2 / Fold change vs veh, CNOT2 / RFU, ZNF268 / Fold change vs veh, ZNF268 / Fold change vs veh, ZNF507 / RFU, DGCR2 / Fold change vs veh, DGCR2 / RFU, WDSUB1 / Fold change vs veh, WDSUB1 / Fold change vs veh, HSP90B1 /// MIR3652 / RFU, ADSS / Fold change vs veh, ADSS / RFU, GK / Fold change vs veh, GK / RFU, ZNF148 / Fold change vs veh, ZNF148 / RFU, TAF9 / Fold change vs veh, TAF9 / RFU, SLC1A5 / Fold change vs veh, SLC1A5 / RFU, SLMO2 / Fold change vs veh, SLMO2 / RFU, ABCC4 / Fold change vs veh, ABCC4 / RFU, LOC101060439 /// RAP1B / Fold change vs veh, LOC101060439 /// RAP1B / RFU, RFX7 / Fold change vs veh, RFX7 / RFU, GTPBP10 / Fold change vs veh, GTPBP10 / RFU, CNEP1R1 / Fold change vs veh, CNEP1R1 / RFU, BIVM-ERCC5 /// ERCC5 / Fold change vs veh, BIVM-ERCC5 /// ERCC5 / RFU, ILF3 / Fold change vs veh, ILF3 / RFU 11762660_at / Fold change /veh 11762660_at / RFU VCAN (11757783_s_at) / Fold change /veh VCAN (11757783_s_at) / RFU DDX43 (11728927_at) / Fold change /veh DDX43 (11728927_at) / RFU KRT8 (11758188_x_at) / Fold change /veh KRT8 (11758188_x_at) / RFU NKD1 (11759106_at) / Fold change /veh NKD1 (11759106_at) / RFU SRD5A1 (11742802_a_at) / Fold change /veh SRD5A1 (11742802_a_at) / RFU TPSAB1 /// TPSB2 (11721975_s_at) / Fold change /veh TPSAB1 /// TPSB2 (11721975_s_at) / RFU GSTM3 (11746129_a_at) / Fold change /veh GSTM3 (11746129_a_at) / RFU IL23R (11737362_x_at) / Fold change /veh IL23R (11737362_x_at) / RFU TMEM51 (11727254_a_at) / Fold change /veh TMEM51 (11727254_a_at) / RFU PIWIL2 (11732686_x_at) / Fold change /veh PIWIL2 (11732686_x_at) / RFU ORM1 (11744905_x_at) / Fold change /veh ORM1 (11744905_x_at) / RFU CCDC152 (11743942_at) / Fold change /veh CCDC152 (11743942_at) / RFU ECM1 (11717891_a_at) / Fold change /veh ECM1 (11717891_a_at) / RFU IL23R (11748794_a_at) / Fold change /veh IL23R (11748794_a_at) / RFU TNFAIP8L3 (11732012_x_at) / Fold change /veh TNFAIP8L3 (11732012_x_at) / RFU MBOAT4 (11741988_at) / Fold change /veh MBOAT4 (11741988_at) / RFU 11764193_at / Fold change /veh 11764193_at / RFU TMEM53 (11763286_at) / Fold change /veh TMEM53 (11763286_at) / RFU MAGEB2 (11727129_at) / Fold change /veh MAGEB2 (11727129_at) / RFU TMEM200A (11744735_a_at) / Fold change /veh TMEM200A (11744735_a_at) / RFU CCDC152 (11751479_a_at) / Fold change /veh CCDC152 (11751479_a_at) / RFU FAM211A (11726209_a_at) / Fold change /veh FAM211A (11726209_a_at) / RFU RGS16 (11746705_a_at) / Fold change /veh RGS16 (11746705_a_at) / RFU VCAN (11755009_s_at) / Fold change /veh VCAN (11755009_s_at) / RFU RHOB (11743442_s_at) / Fold change /veh RHOB (11743442_s_at) / RFU RGS16 (11720943_a_at) / Fold change /veh RGS16 (11720943_a_at) / RFU RGS16 (11720944_at) / Fold change /veh RGS16 (11720944_at) / RFU, VPS4B / Fold change vs veh, VPS4B / RFU, CREB1 / Fold change vs veh, CREB1 / RFU, DNAJC13 / Fold change vs veh, DNAJC13 / RFU, GNAQ / Fold change vs veh, GNAQ / RFU, CDK5R1 / Fold change vs veh, CDK5R1 / RFU, ZRANB3 / Fold change vs veh, ZRANB3 / RFU, CUL4A / Fold change vs veh, CUL4A / RFU, CCNY / Fold change vs veh, CCNY / RFU, UFL1 / Fold change vs veh, UFL1 / RFU, COG3 / Fold change vs veh, COG3 / RFU, DIAPH2 / Fold change vs veh, DIAPH2 / RFU, SKA2 / Fold change vs veh, SKA2 / RFU, AFF3 / Fold change vs veh, AFF3 / RFU, LMF1 / Fold change vs veh, LMF1 / RFU, IPO11 / Fold change vs veh, IPO11 / RFU, DFFB / Fold change vs veh, DFFB / RFU, FOXP1 / Fold change vs veh, FOXP1 / RFU, CARD8 / Fold change vs veh, CARD8 / RFU, STRN3 / Fold change vs veh, STRN3 / RFU, ADK / Fold change vs veh, ADK / RFU, RASSF2 / Fold change vs veh, RASSF2 / RFU, WIPF1 / Fold change vs veh, WIPF1 / RFU, LARP1B / Fold change vs veh, LARP1B / RFU, RASA1 / Fold change vs veh, RASA1 / RFU, RB1 / Fold change vs veh, RB1 / RFU, PPFIA1 / Fold change vs veh, PPFIA1 / RFU, MAT2A / Fold change vs veh, MAT2A / RFU, CCT5 / Fold change vs veh, CCT5 / RFU, WDR92 / Fold change vs veh, WDR92 / RFU, CUX1 / Fold change vs veh, CUX1 / RFU, TTC7A / Fold change vs veh, TTC7A / RFU, TMEM135 / Fold change vs veh, TMEM135 / RFU, DEPTOR / Fold change vs veh, DEPTOR / RFU, CPM / Fold change vs veh, CPM / RFU, DNAJB6 / Fold change vs veh, DNAJB6 / RFU, CACNA2D3 / Fold change vs veh, CACNA2D3 / RFU, DTX4 / Fold change vs veh, DTX4 / RFU, TFCP2 / Fold change vs veh, TFCP2 / RFU, GMCL1 /// GMCL1P1 / Fold change vs veh, GMCL1 /// GMCL1P1 / RFU, AEBP2 / Fold change vs veh, AEBP2 / RFU, SNHG1 /// SNORD22 /// SNORD25 /// SNORD26 /// SNORD27 /// SNORD28 /// SNORD29 /// SNORD31 / Fold change vs veh, SNHG1 /// SNORD22 /// SNORD25 /// SNORD26 /// SNORD27 /// SNORD28 /// SNORD29 /// SNORD31 / Fold change (Aza/veh), C12orf56 (ProbeSet 11735607_a_at) / Fold change (ACY-1035/veh), C12orf56 (ProbeSet 11735607_a_at) / Fold change (Aza/veh), FGFR1OP (ProbeSet 11751329_s_at) / Fold change (ACY-1035/veh), FGFR1OP (ProbeSet 11751329_s_at) / Fold change (Aza/veh), VPS36 (ProbeSet 11739960_a_at) / Fold change (ACY-1035/veh), VPS36 (ProbeSet 11739960_a_at) / RFU SYPL1 (11715823_x_at) / Fold change /veh SYPL1 (11715823_x_at) / RFU IGFBP7 (11715501_s_at) / Fold change /veh IGFBP7 (11715501_s_at) / RFU REEP3 (11722064_at) / Fold change /veh REEP3 (11722064_at) / RFU IGLL1 (11728026_x_at) / Fold change /veh IGLL1 (11728026_x_at): dose or concentration left out as unconfirmed
Conditions: ProbeSet 11716331_a_at; LIST D

Nc1ncn([C@@H]2O[C@H](CO)[C@@H](O)[C@H]2O)c(=O)n1 [azacitidine]
RFU, DNAJB6: 212.79 RFU
